Measurements published in BindingDB's records for doi:10.1021/jm00101a007 (Centre De Recherche De Vitry-Alfortville, 1992).

Biological target: Leukotriene B4 receptor (Cavia porcellus)
Experiment: Inhibition of [3H]LTB4 binding to Leukotriene B4 receptor in the guinea pig spleen membranes

Compound | IC50 [nM]
O=C(O)CCCCCCOc1cc(-c2ccccc2)c2ccccc2n1 | 1800
CC(CCCCOc1cc(-c2ccccc2)c2ccccc2n1)C(=O)O (stereo unspecified) | 550
CC(C)(CCCCOc1cc(-c2ccc(N)cc2)c2ccccc2n1)C(=O)O | 40
O=C(O)CCCCCOc1cc(-c2ccc(Cl)cc2)c2ccccc2n1 | 30
CC(C)(CCCCOc1cc(-c2ccccc2)c2cc(Cl)ccc2n1)C(=O)O | 2500
CC(C)(CCCCOc1cc(-c2ccc(Cl)cc2)c2ccccc2n1)C(=O)O | 15
CC(C)(CCCCOc1cc(-c2ccc(Cl)cc2)c2ccccc2n1)c1nnn[nH]1 | 30
CC(C)(CCCCOc1cc(-c2ccccc2)c2ccccc2n1)c1nnn[nH]1 | 400
CC(C)(CCCCOc1cc(-c2cccc(Cl)c2)c2ccccc2n1)C(=O)O | 1100
CC(C)(CCCCOc1cc(-c2ccc(C(F)(F)F)cc2)c2ccccc2n1)C(=O)O | 300
Cc1ccc(-c2cc(OCCCCC(C)(C)C(=O)O)nc3ccccc23)cc1 | 30
COc1cccc(-c2cc(OCCCCC(C)(C)C(=O)O)nc3ccccc23)c1 | 300
CC(C)(CCCCOc1cc(-c2ccc([N+](=O)[O-])cc2)c2ccccc2n1)C(=O)O | 150
c1ccc(-c2cc(OCCCCCc3nnn[nH]3)nc3ccccc23)cc1 | 500
O=C(O)CCCCCOc1cc(-c2ccccc2)c2ccccc2n1 | 700

Biological target: Leukotriene B4 receptor (Cavia porcellus)
Experiment: as above
Remark: another data set of the same source

Compound | IC50 [nM]
CC(C)(CCCCOc1cc(-c2ccccc2)c2ccccc2n1)C(=O)O | 183
